The record followed here is PMC12040169 (PLOS Biology, 2025).

Molecules are shown by their SMILES.

The series can be described thus: in vitro. The conditions noted are these: human, hela cells, % viability.

In general, viability refers to a read-out of living cells in per cent, often relative to untreated cells. For the compound `CO[C@@H]1CO[C@H]2[C@@H]1OC[C@@H]2NC(=O)Nc1cccc(C(F)(F)F)c1` [CBK289461], the viability at 28.5 h, 10 µM worked out at 112%. Still for that read-out and setting: with `O=C(CN1CCC(Cc2ccccc2)CC1)Nc1ccc(F)c(Cl)c1` [CBK126387] the figure was 92.4%; with `O=C(O)c1cc(NCc2ccccc2)ccc1N1CCOCC1` [CBK287099], 101%. `O=C(c1ccc(F)cc1)[C@H]1CCCN(C(=O)C2CC2)C1` [CBK284326]: the viability at 28.5 h, 10 µM is 90.5%.

In the case of `COc1ccc(-n2nc3cc(C)c(NC(=S)NC(=O)/C=C/c4ccco4)cc3n2)cc1` [CBK264359], the viability at 28.5 h, 10 µM was 109%.

As for `Cc1ccc(S(=O)(=O)N(C)CC(=O)OCC(=O)c2ccccc2)cc1` [CBK264329], the viability at 28.5 h, 10 µM came out at 95.1%.

For the compound `COc1ccccc1OCCOc1cccc(/C=N/n2cnnc2)c1` [CBK263288], the viability at 28.5 h, 10 µM was 94.7%.

Take `CCOC(=O)c1sc(NS(=O)(=O)c2ccc(-c3ccccc3)cc2)nc1C` [CBK003784]: the viability at 28.5 h, 10 µM was determined as 106%. The same measure, in the same setting: with `O=[N+]([O-])c1ccccc1S(=O)(=O)N1CCN(Cc2cccc(Oc3ccccc3)c2)CC1` [CBK264283] the figure was 98.9%; with `Cc1cc(C)c2c(C(C)(C)C)nn(-c3ccc(C(=O)O)cc3)c2n1` [CBK267481], 88.4%.

As to `Cn1cc(C(Nc2cccc(C#N)n2)[C@H]2C[C@H](O)C2)cn1` (stereo partly shown) [CBK307011], the viability at 28.5 h, 10 µM was 105%.

As to `FC(F)(F)c1cnc(Sc2c[nH]nn2)c(Cl)c1` [CBK007252], the viability at 28.5 h, 10 µM amounted to 93.3%. On the same count and under the same terms, with `CCNC(=O)c1ccc(-c2ccc(S(C)(=O)=O)cc2)nc1` [CBK158882] the figure was 91.9%; with `Cc1cc2ccccc2n2c(=O)n(CC(=O)N3CCCCC3)nc12` [CBK283878], 85.8%; with `NS(=O)(=O)c1ccc(CCNC(=O)/C=C/c2ccccc2Cl)cc1` [CBK264379], 94%. Turning to `FC(F)(F)c1ccc(OCCNc2ccccc2)nc1` [CBK115828], the viability at 28.5 h, 10 µM was found to be 101%.

Regarding `CN(C)CCN1CCN(c2nc(-c3occc3C=O)cnc2N)CC1` [CBK063917], the viability at 28.5 h, 10 µM was 96.3%. The same measure, in the same setting: the value for `O=C(O)CC1Sc2ccccc2NC1=O` (stereo not shown) [CBK261308] was 101%; that for `O=C(O)c1cccc(Nc2nc(Nc3ccccc3)nc(N3CCCC3)n2)c1` [CBK286863] was 89.8%; that for `C=CCOc1ccc(-c2nc3s/c(=C4\C(=O)N(Cc5ccccc5F)c5ccccc54)c(=O)n3n2)cc1` [CBK266615] was 108%. On the same count and under the same terms, the value for `Cc1nc2c(c(N3CCOCC3)n1)OCC(=O)N2` [CBK287939] was 94.5%. For the compound `O=C(Nc1ccc(S(=O)(=O)N2CCCC2)cc1)c1ccc(COc2ccc3c(c2)CCC3)o1` [CBK265847], the viability at 28.5 h, 10 µM is 89.1%.

In the case of `Cn1c(-c2ccccc2)c(C(=O)C(N)=O)c2ccccc21` [CBK288465], the viability at 28.5 h, 10 µM is 104%. For the compound `Cc1cc(C)n(CCn2cc(-c3ncc[nH]3)nn2)c(=O)n1` [CBK307554], the viability at 28.5 h, 10 µM amounted to 83.1%. On to `Cc1cc(CNC(=O)/C=C/c2ccc(C(C)C)cc2)no1` [CBK149614], for which the viability at 28.5 h, 10 µM turned out to be 103%. Same read-out and setting: with `CCc1nnc(NC(=O)CSc2ncnc3c2oc2ccccc23)s1` [CBK287392] the figure was 90.7%; with `CCN(CC)CCCCC1(C)SC(NC2CCCCCC2)=NC1=O` (stereo not shown) [CBK113257], 96.9%; with `Cc1ccc(-c2cc(C(=O)NCC3(C)COC3)no2)cc1` [CBK281744], 93.8%. Same read-out and setting: with `Cc1ccc(S(=O)(=O)Nc2cccc(C(=O)N3CCN(C)CC3)c2)cc1[N+](=O)[O-]` [CBK038976] the figure was 89.5%; with `C=C(C)CNC(=O)c1cc(-c2ccc(OC)cc2)cnc1NCC1CC1` [CBK076339], 97.7%. Still for that read-out and setting: with `Cc1ccc(-c2noc([C@@H]3C[C@H](NC(=O)CCC(=O)O)CN3C)n2)cc1` [CBK288852] the figure was 93.8%; with `c1cncc(-c2ncc(-c3ccco3)c(-c3ccco3)n2)c1` [CBK284503], 93.5%. In the case of `COc1cc(CN2CCN(c3ccccn3)CC2)ccc1OCc1ccccc1` [CBK261906], the viability at 28.5 h, 10 µM was 88.8%. Regarding `Cc1ccc(C(=O)NC(=S)Nc2ccc(-c3ccc(CO)o3)cc2)cc1[N+](=O)[O-]` [CBK269127], the viability at 28.5 h, 10 µM turned out to be 110%. Same read-out and setting: the value for `Fc1ccc(COc2ccccc2CNCCN2CCOCC2)cc1` [CBK278150C] was 91.5%. For the compound `Cn1c(N2CCOCC2)cc(=O)c2ccccc21` [CBK007775], the viability at 28.5 h, 10 µM was 93.7%. Turning to `O=C1CCC(=O)N1CCn1c(=O)n(C(=O)CCCOc2ccc(Cl)cc2)c2ccccc21` [CBK106496], the viability at 28.5 h, 10 µM was 93.4%.

Take `Cn1cc(N2CCCC(NC(=O)Nc3cccc(C#N)c3)C2)cn1` (stereo not shown) [CBK305179]: the viability at 28.5 h, 10 µM was 91.3%.

In the case of `Cc1onc(-c2ccccc2)c1C(=O)Nc1ccccc1N1CCCNCC1` [CBK038929T], the viability at 28.5 h, 10 µM came out at 96.9%. With `O=C(NC(Cc1cccs1)c1nccs1)c1cccnc1` (stereo not shown) [CBK285133], the viability at 28.5 h, 10 µM was 98.3%. Same read-out and setting: the value for `CS(=O)(=O)N1CCc2cc(-c3csc(N)n3)ccc21` [CBK304596] was 102%; that for `CC(C)CC(=O)N1C[C@H]2CCCN(Cc3ccsc3)[C@H]2C1` [CBK285290] was 102%.

For the compound `O=C(CSc1ncn(-c2ccccc2)n1)Nc1c(Cl)cccc1Cl` [CBK269683], the viability at 28.5 h, 10 µM was determined as 94.7%. On the same count and under the same terms, the value for `Cn1ncnc1CNc1ccc(S(=O)(=O)N2CCCCCC2)cc1` [CBK305278] was 90.1%; that for `c1cncc(OCCOc2nsnc2N2CCNCC2)c1` [CBK001825G] was 94.4%; that for `COCC(=O)N1C2CCC(C2)[C@@H]1COc1ccc(F)cc1` (stereo partly shown) [CBK284603] was 109%.

As for `O=C(c1cc(F)c(F)cc1F)N1CCC2(CCCN(CCN3CCOCC3)C2)C1` (stereo not shown) [CBK132015], the viability at 28.5 h, 10 µM amounted to 82.8%. Take `COc1ccc2[nH]c3c(c2c1)CCN(C(C)=O)C31CCN(CCOc2ccccc2)C1` (stereo not shown) [CBK039626]: the viability at 28.5 h, 10 µM worked out at 85.5%. Still for that read-out and setting: the value for `CCCn1cnnc1C(C)NC(=O)Nc1ccnn1CC1CCCCC1` (stereo not shown) [CBK306800] was 105%.

With `O=C(C1CCC1)N1CCC(n2c(=O)[nH]c3ccccc32)CC1` [CBK149709], the viability at 28.5 h, 10 µM was found to be 108%. On the same count and under the same terms, the value for `COc1ccc(C(=O)Nc2ccc(N3CCN(C(=O)C(C)(C)C)CC3)cc2)cc1` [CBK270266] was 99%; that for `CCCC/C=C/c1nccnc1NCc1ccc2c(c1)OCO2` [CBK037304] was 98.1%; that for `CO[C@]1(c2ccc(Cl)cc2)CC[C@H](NCCCC(=O)c2ccc(F)cc2)CC1` [CBK015959C] was 90.2%.

Regarding `CC(C)NC(=O)N[C@H]1CCN2C(=O)c3cc(-c4ccc(F)cc4F)ccc3NC(=O)[C@H]12` [CBK289346], the viability at 28.5 h, 10 µM turned out to be 86.8%. Still for that read-out and setting: the value for `CC(Oc1ccc(Br)cc1Cl)C(=O)NCCCN1CCCC1=O` (stereo not shown) [CBK268138] was 98.7%; that for `COC(=O)c1sc2cc(NC(=S)NCc3ccc(S(N)(=O)=O)cc3)ccc2c1Cl` [CBK267094] was 81.7%; that for `Cc1ccc(S(=O)(=O)N2CCCCC2CO)cc1` (stereo not shown) [CBK051142] was 114%. On the same count and under the same terms, the value for `CCCCOc1cccc(C(=O)Nc2ccc(-c3nc4ccccc4o3)c(O)c2)c1` [CBK263435] was 101%. Still for that read-out and setting: with `COc1cc(/C=C(/C#N)c2ccc(C(=O)O)cc2)cc(Br)c1OCC(=O)O` [CBK268956] the figure was 92.3%. Take `C[C@@H]1[C@H]2Cc3ccc(O)cc3[C@]1(C)CCN2Cc1ccoc1` [CBK005262G]: the viability at 28.5 h, 10 µM (bulk resorufin, single well) worked out at 103%. As to `COc1cc(S(=O)(=O)Nc2ccc(CC(=O)O)cc2)ccc1Cl` [CBK287019], the viability at 28.5 h, 10 µM is 107%. On the same count and under the same terms, with `COc1ccc(C(=O)NC(c2ccccc2Cl)c2cc(Cl)c3cccnc3c2O)cc1` (stereo not shown) [CBK264036] the figure was 88%; with `O=C(Nc1ccc(Cc2ccncc2)cc1)c1ccc(CSc2ccc(Cl)cc2)cc1` [CBK262526], 86.9%.

On to `N/C(Cc1ccc([N+](=O)[O-])cc1)=N\OC(=O)COc1cccc2ccccc12` [CBK262994], for which the viability at 28.5 h, 10 µM amounted to 92.8%. For the compound `O=C(c1cc(C2CC2)n[nH]1)N1CCn2cc(C(F)(F)F)nc2C1` [CBK284749], the viability at 28.5 h, 10 µM amounted to 81.6%. Consider `O=C(c1nc2ccccc2s1)C1CCNCC1` [CBK285397], for which the viability at 28.5 h, 10 µM amounted to 103%. Still for that read-out and setting: the value for `CN1CCN(c2nc(-c3ccco3)cn3ccnc23)CC1` [CBK038045] was 83.7%; that for `CC(C)c1ccc(S(=O)(=O)N(CCC#N)Cc2ccccc2)cc1` [CBK043565] was 90.7%. `O=C1NC(=S)NC(=O)C1=CNc1ccc(F)c(Cl)c1` [CBK262391]: the viability at 28.5 h, 10 µM (bulk resorufin, single well) was 118%.

Turning to `CCC1(c2ccccc2)C(=O)NC(=O)N(CCN2CCOCC2)C1=O` (stereo not shown) [CBK288379], for the setting “bulk resorufin, single well”, the viability at 28.5 h, 10 µM stood at 88%. With `Nc1ncc(-c2cccc3cccnc23)nc1NCc1ccncc1` [CBK063622], the viability at 28.5 h, 10 µM stood at 87.4%.

Consider `Cn1cc(C(=O)Nc2ccccc2N2CCNCC2)c2ccccc21` [CBK034141T], for which the viability at 28.5 h, 10 µM is 92.2%. Same read-out and setting: the value for `O=C(c1ccc(OC(F)F)cc1)N1CCCCC1` [CBK074223] was 86.7%. On the same count and under the same terms, the value for `Cn1cc(C(=O)NC2CCN(C(=O)c3ccc4c(c3)CCC4)CC2)cn1` [CBK305664] was 97.8%; that for `CCOC(=O)c1[nH]c2ccccc2c1NS(=O)(=O)c1ccc(C)c([N+](=O)[O-])c1` [CBK047427] was 97.6%; that for `CC(C)[C@H]1CN(Cc2cc(C#N)n(C)c2)C[C@@H]1NC(=O)C1CCC1` [CBK306832] was 91.6%. Turning to `CCCCCOc1ccc(NS(=O)(=O)c2cccc(C(=O)O)c2)cc1` [CBK299795], the viability at 28.5 h, 10 µM was 103%. For the compound `CC1CNCCN1C(=O)c1ccnc(N2CCN(C)CC2)c1` (stereo not shown) [CBK304122], the viability at 28.5 h, 10 µM was determined as 88.6%. Still for that read-out and setting: with `CN(C)S(=O)(=O)Nc1cccc2cc[nH]c12` [CBK159505] the figure was 92.8%.
